Laboratory results as given in ChEMBL document CHEMBL1143380, “N-[6-amino-2-(heteroaryl)pyrimidin-4-yl]acetamides as A2A receptor antagonists with improved drug like properties and in vivo efficacy” (J Med Chem, 2009).
In brackets after ≈: the same amount, converted by molar mass.

Columns and labels:
Adenosine receptor A1 = biological target: T1, Adenosine receptor A1 (Homo sapiens, UniProt P30542); assay: Displacement of [3H]DPCPX from human adenosine A1 receptor expressed in HEK293 cells; assay type: cell-based
T1 sequence (P30542 whole entry): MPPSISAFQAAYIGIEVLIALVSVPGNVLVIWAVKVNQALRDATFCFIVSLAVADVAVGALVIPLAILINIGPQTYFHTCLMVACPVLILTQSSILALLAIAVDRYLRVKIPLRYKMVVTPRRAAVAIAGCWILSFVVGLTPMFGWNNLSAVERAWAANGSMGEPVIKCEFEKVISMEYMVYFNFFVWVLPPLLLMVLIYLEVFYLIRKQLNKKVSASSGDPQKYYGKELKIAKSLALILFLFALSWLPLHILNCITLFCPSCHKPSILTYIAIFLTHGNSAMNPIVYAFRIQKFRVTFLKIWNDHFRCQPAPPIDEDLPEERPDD

Homo sapiens = species on record: Homo sapiens; assay: Selectivity ratio of Ki for human adenosine A1 receptor to Ki for human adenosine A2A receptor
Adenosine receptor A2a [1] = biological target: T2, Adenosine receptor A2a (Homo sapiens, UniProt P29274); assay: Displacement of [3H]ZM241385 from human adenosine A2A receptor expressed in HEK293 cells; assay type: cell-based
T2 sequence (P29274 whole entry): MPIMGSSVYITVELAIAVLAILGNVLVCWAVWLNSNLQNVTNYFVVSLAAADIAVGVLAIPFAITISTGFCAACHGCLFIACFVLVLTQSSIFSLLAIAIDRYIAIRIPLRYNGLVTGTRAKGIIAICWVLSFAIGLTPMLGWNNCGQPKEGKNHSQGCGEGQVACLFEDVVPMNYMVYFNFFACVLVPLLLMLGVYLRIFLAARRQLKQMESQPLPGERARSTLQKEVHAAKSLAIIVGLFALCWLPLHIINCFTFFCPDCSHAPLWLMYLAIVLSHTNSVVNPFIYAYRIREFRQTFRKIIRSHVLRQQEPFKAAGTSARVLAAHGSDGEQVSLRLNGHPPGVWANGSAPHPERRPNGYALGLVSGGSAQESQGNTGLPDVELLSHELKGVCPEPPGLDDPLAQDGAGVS

Adenosine receptor A2a [2] = biological target: T2, Adenosine receptor A2a; assay: Antagonist activity at human adenosine A2A receptor assessed as inhibition of CGS-21680-stimulated cAMP production; assay type: functional
[3] = Solubility at pH >=2; assay type: physicochemical
[4] = Solubility in phosphate buffered saline; assay type: physicochemical
[5] = Solubility in phosphate buffer at pH 7.2; assay type: physicochemical

Row | Structure (SMILES) | Ki (Adenosine receptor A1) [nM] | Ratio Ki (Homo sapiens) | Ki (Adenosine receptor A2a [1]) [nM] | solubility [3] [µg/mL] | solubility [4] [µg/mL] | IC50 (Adenosine receptor A2a [2]) [nM] | solubility [5] [µg/mL]
1 | COC[C@@H]1CCCN1c1cc(NC(C)=O)nc(-c2ccc(C)o2)n1 | 215 | 2 | 119 | – | – | – | –
2 | COC[C@H]1C[C@@H](OC)CN1c1cc(NC(C)=O)nc(-n2nc(C)cc2C)n1 | 620 | 27 | 23 | – | – | – | –
3 | COC[C@H]1CCCN1c1cc(N)nc(-n2nc(C)cc2C)n1 | 2470 | 9.5 | 261 | – | – | – | –
4 | CC(=O)Nc1cc(N2CCOCC2)nc(-n2nc(C)cc2C)n1 | 8120 | 26 | 313 | – | – | – | –
5 | COC[C@@H]1CCCN1c1cc(NC(C)=O)nc(-c2cccs2)n1 | 325 | 12 | 27 | – | – | – | –
6 | COC[C@H]1C[C@H](OC)CN1c1cc(NC(C)=O)nc(-n2nc(C)cc2C)n1 | 352 | 47 | 7.5 | – | – | – | –
7 | CC(=O)Nc1cc(-c2ccccc2O)nc(-n2nc(C)cc2C)n1 | – | – | 1.9 | – | – | – | –
8 | COC[C@H]1CCCN1c1cc(NC(C)=O)nc(-c2ccc(C)o2)n1 | 10.5 | 4 | 2.7 | – | – | – | –
9 | CC(=O)Nc1cc(N2CCCCC2)nc(-n2nc(C)cc2C)n1 | 3360 | 43 | 78 | – | – | – | –
10 | COC[C@H]1CCCN1c1cc(NC(C)=O)nc(-c2cccs2)n1 | 203 | 4.3 | 47 | – | – | – | –
11 | COc1cncc(-c2cc(NC(C)=O)nc(-n3nc(C)cc3C)n2)c1 | – | 82 | – | 10 (≈ 29.6 µM) | – | 85 | –
12 | COC[C@@H]1CCCN1c1cc(NC(C)=O)nc(-c2nccs2)n1 | 354 | 23 | 15 | – | – | – | –
13 | CCN(CC)c1cc(NC(C)=O)nc(-n2nc(C)cc2C)n1 | 4470 | 49 | 92 | – | – | – | –
14 | COC[C@H]1CCCN1c1cc(NC(C)=O)nc(-c2nccs2)n1 | 150 | 7.5 | 20 | – | – | – | –
15 | CC(=O)Nc1cc(N2CCN(C)CC2)nc(-n2nc(C)cc2C)n1 | > 10000 | – | 1870 | – | – | – | –
16 | CC(=O)Nc1cc(N2CCCC2=O)nc(-n2nc(C)cc2C)n1 | 913 | 76 | 12 | – | – | 1000 | –
17 | CC(=O)Nc1cc(N2CCc3ccccc3C2)nc(-n2nc(C)cc2C)n1 | 323 | 77 | 4.2 | – | – | – | 10 (≈ 27.6 µM)
18 | COC[C@@H]1CCC(C)N1c1cc(NC(C)=O)nc(-n2nc(C)cc2C)n1 (some centres undefined) | 1640 | 35 | 47 | – | – | – | –

Continued, in another order:

Row | Ki (Adenosine receptor A1) [nM] | Ratio Ki (Homo sapiens) | Ki (Adenosine receptor A2a [1]) [nM] | solubility [3] [µg/mL] | solubility [4] [µg/mL] | Structure (SMILES) | IC50 (Adenosine receptor A2a [2]) [nM] | solubility [5] [µg/mL]
19 | 4470 | 14 | 324 | – | – | COC[C@@H]1CCCN1c1cc(NC(C)=O)nc(-n2nc(C)cc2C)n1 | – | –
20 | 64 | 1.5 | 40 | – | – | CC(=O)Nc1cc(N2CCC[C@@H]2COc2ccccn2)nc(-n2nc(C)cc2C)n1 | – | –
21 | 1530 | 59 | 25.8 | – | – | CC(=O)Nc1cc(N2CCCC2CO)nc(-n2nc(C)cc2C)n1 (single isomer, unassigned) | – | –
22 | – | – | > 10000 | – | – | COC(=O)[C@@H]1CCCN1c1cc(NC(C)=O)nc(-n2nc(C)cc2C)n1 | – | –
23 | – | 34 | – | – | – | COC[C@H]1CCCN1c1cc(NC(C)=O)nc(-n2nc(C)cc2C)n1 | – | –
24 | 4950 | 45 | 110 | – | – | CC(=O)Nc1cc(N2CCCC2)nc(-n2nc(C)cc2C)n1 | – | –
25 | 64 | 11 | 5.9 | – | – | CCC(=O)Nc1cc(N2CCC[C@@H]2COC)nc(-n2nc(C)cc2C)n1 | – | –
26 | 92 | 2 | 50 | – | – | COC[C@H]1CCCN1c1cc(NC(=O)CC(C)C)nc(-n2nc(C)cc2C)n1 | – | –
27 | 960 | 50 | 19 | – | – | COC[C@H]1CCCN1c1cc(NC(=O)OC)nc(-n2nc(C)cc2C)n1 | – | –
28 | 1280 | 29 | 43 | – | – | COC[C@H]1CCCN1c1cc(NC(=O)NC(C)C)nc(-n2nc(C)cc2C)n1 | – | –
29 | 125 | 2.5 | 50 | – | – | COC[C@@H]1CCCN1c1cc(NC(C)=O)nc(-c2ccccn2)n1 | – | –
30 | 2930 | 14 | 205 | – | – | COC(=O)[C@H]1CCCN1c1cc(NC(C)=O)nc(-n2nc(C)cc2C)n1 | – | –
31 | – | – | – | – | > 6700 | COC[C@H]1CCCN1c1cc(NC(C)=O)nc(-n2nc(C)cc2C)n1.Cl | – | –
32 | 12100 | 28 | 439 | – | – | CC(=O)Nc1cc(N2CCC[C@H]2COc2ccccn2)nc(-n2nc(C)cc2C)n1 | – | –
33 | 4190 | 9 | 455 | – | – | CCOCC1CCCN1c1cc(NC(C)=O)nc(-n2nc(C)cc2C)n1 (centres undefined) | – | –
34 | 320 | 35 | 9 | – | – | COCC1CCCN1c1cc(NC(C)=O)nc(-n2nc(C)cc2C)n1 (centres undefined) | – | –
35 | 69 | 1.5 | 46 | – | – | COC[C@H]1CCCN1c1cc(NC(C)=O)nc(-c2ccccn2)n1 | – | –
36 | 1040 | 37 | 28 | – | – | CC(=O)Nc1cc(N2CCCC2C)nc(-n2nc(C)cc2C)n1 (centres undefined) | – | –
37 | 4690 | 17 | 275 | – | – | COCCC1CCCCN1c1cc(NC(C)=O)nc(-n2nc(C)cc2C)n1 (single isomer, unassigned) | – | –
